Source: patent US20210255193A1, “LYSINE REACTIVE PROBES AND USES THEREOF” (The Scripps Research Institute, priority 2017, published 2021)

Columns and labels:
Assay in all cases: direct labeling of recombinantly expressed proteins by gel-based ABPP (WT vs lysine mutant)
Format in all cases: binding
GSTO1 = biological target: T1, GSTO1 (Homo sapiens, UniProt P78417); settings: GSTO1 K57, KR mutant; 10 μM probe, 1 h
T1 construct: expressed in transfected cells; host or cells: HEK 293T
T1 sequence (P78417 1-241): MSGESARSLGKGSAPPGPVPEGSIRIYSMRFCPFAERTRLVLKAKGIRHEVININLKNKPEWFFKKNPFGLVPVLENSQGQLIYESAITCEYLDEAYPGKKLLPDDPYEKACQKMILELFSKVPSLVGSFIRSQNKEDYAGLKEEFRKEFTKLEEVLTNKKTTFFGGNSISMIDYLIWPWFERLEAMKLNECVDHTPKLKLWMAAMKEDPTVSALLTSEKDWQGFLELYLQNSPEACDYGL
Excerpt: (§1) Subcloning and mutagenesis. Unless noted below, genes were amplified from cDNA prepared from low passage HEK 293T cells using the Ribozol RNA extraction reagent (Amresco) and the iScript Reverse Transcription Supermix kit (Bio-Rad). For the following proteins cDNA clones were used for amplification instead: PFKP (5180268, Dharmacon), HK1 (BC008730, transomic), SIN3A (BC137098, transomic), G6PD (BC000337, transomic) and TGIF1 (BC031268, transomic). Mouse CARM1 in pFLAG-CMV-6c was a kind gift from the Mowen lab (TSRI). NUDT2 was obtained as synthesized gene (IDT). DNA was amplified with custom forward and reverse primers using phusion polymerase (NEB, M0530S), digested with the indicated restriction enzyme and ligated into pFLAG-CMV-6c or pRK5 with the appropriate affinity tag. Lysine mutants were generated using QuikChange site-directed mutagenesis using Phusion® High-Fidelity DNA Polymerase and primers containing the desired mutations and their respective complements. The cloning of TTR and its K35A mutant has been described in Choi et al., “Chemoselective small molecules that covalently modify one lysine in a non-enzyme protein in plasma,” Nat. Chem. Biol. 6, 133-139 (2010). TTR was expressed in E. coli and purified as described. For gel-based experiments 1 μM TTR was added into 1 mg ml^−1 soluble MDA-MB-231 lysate.
(§2) Recombinant expression of proteins by transient transfection. HEK 293T cells were grown to 50% confluency in 10 ml DMEM supplemented with 10% fetal bovine serum (FBS), penicillin, streptomycin and glutamine in 10 cm tissue culture dishes. 3 μg of DNA was diluted in 500 μL DMEM and 30 μL of PEI (MW 40,000, 1 mg ml^−1, Polysciences) were added. The mixture was incubated at room temperature for 30 min and added dropwise to the cells. Cells were grown for 48 h at 37° C. with 5% CO2. Cells were washed with cold PBS, scraped with cold PBS and cell pellets were isolated by centrifugation (1,400 g, 3 min, 4° C.), and stored at −80° C. until use. Cell pellets were resuspended in PBS, lysed by sonication and fractionated (100,000 g, 45 min) to yield soluble and membrane fractions. The soluble fraction was adjusted to a final protein concentration of 1 mg ml^−1 for gel-based ABPP experiments.
(§3) Direct labeling of recombinantly expressed proteins by gel-based ABPP. 50 μL of soluble HEK 293T proteome (1 mg ml^−1) expressing the respective protein (WT or KR mutant) or transfected with an empty vector were treated with 10 μM of the indicated probe for 1 h at room temperature. The samples were analyzed as described in the previous section. For quantification of relative labeling of the different protein variants, the intensity of labeling was determined by quantifying the integrated optical intensity of the bands using ImageLab 5.2.1 software (BioRad).

G6PD = biological target: T2, G6PD (Homo sapiens, UniProt P11413); settings: G6PD K171, KR mutant; 10 μM probe, 1 h
T2 construct: expressed in transfected cells; host or cells: HEK 293T
Excerpt: as §1, §2, §3

PFKL = biological target: T3, PFKL (Homo sapiens, UniProt P17858); settings: PFKL K676, KA mutant; 10 μM probe, 1 h
T3 construct: expressed in transfected cells; host or cells: HEK 293T
T3 sequence (P17858 1-780): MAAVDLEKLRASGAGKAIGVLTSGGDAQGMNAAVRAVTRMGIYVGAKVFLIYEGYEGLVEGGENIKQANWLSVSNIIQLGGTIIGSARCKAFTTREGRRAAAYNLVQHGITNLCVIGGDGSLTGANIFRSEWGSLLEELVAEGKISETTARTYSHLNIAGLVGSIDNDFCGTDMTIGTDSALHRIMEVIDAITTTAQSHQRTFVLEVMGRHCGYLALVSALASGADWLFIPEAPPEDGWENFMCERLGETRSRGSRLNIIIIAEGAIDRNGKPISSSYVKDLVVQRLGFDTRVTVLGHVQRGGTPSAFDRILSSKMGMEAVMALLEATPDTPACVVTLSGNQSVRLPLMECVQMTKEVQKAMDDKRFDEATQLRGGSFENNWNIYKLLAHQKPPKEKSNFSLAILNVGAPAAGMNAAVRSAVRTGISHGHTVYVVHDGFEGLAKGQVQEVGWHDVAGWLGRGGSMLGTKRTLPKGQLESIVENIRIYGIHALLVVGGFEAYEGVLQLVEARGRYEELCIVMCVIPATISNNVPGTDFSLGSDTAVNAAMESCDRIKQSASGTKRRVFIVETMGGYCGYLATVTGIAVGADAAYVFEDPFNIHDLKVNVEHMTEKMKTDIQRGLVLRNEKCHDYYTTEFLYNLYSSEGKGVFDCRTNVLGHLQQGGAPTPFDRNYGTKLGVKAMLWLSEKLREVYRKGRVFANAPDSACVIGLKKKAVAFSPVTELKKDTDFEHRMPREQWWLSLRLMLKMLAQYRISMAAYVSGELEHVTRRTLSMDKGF
Excerpt: as §1, §2, §3

FAH = biological target: T4, FAH (Homo sapiens, UniProt P16930); settings: FAH K241, KR mutant; 10 μM probe, 1 h
T4 construct: expressed in transfected cells; host or cells: HEK 293T
T4 sequence (P16930 1-419): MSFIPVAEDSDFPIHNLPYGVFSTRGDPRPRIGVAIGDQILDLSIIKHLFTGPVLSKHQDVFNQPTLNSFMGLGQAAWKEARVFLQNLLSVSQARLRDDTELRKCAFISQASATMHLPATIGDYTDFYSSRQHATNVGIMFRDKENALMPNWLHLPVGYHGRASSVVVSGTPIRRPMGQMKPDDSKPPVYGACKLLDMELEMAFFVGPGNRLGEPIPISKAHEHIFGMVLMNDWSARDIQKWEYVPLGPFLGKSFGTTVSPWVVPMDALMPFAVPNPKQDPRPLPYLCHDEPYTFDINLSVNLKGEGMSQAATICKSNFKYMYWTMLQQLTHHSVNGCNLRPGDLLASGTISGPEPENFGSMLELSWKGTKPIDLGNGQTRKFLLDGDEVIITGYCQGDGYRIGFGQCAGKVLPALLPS
Excerpt: as §1, §2, §3

T2 sequence (P11413 whole entry): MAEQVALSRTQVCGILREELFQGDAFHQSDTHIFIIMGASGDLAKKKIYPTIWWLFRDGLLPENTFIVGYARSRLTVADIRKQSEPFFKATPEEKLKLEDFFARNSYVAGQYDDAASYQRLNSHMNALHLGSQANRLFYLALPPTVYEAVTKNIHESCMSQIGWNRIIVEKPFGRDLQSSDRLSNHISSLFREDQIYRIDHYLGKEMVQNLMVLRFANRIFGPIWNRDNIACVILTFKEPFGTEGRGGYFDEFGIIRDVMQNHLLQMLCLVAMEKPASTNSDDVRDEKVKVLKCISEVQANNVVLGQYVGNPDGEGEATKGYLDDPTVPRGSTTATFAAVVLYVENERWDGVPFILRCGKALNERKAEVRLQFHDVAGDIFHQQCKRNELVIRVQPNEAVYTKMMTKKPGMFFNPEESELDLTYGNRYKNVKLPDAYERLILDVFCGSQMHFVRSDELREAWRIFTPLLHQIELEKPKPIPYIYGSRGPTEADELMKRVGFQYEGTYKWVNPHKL

Compound | labeling of WT vs mutant protein by probe (GSTO1) | labeling of WT vs mutant protein by probe (G6PD) | labeling of WT vs mutant protein by probe (PFKL) | labeling of WT vs mutant protein by probe (FAH)
C#CCCC(=O)Oc1c(F)c(F)c(F)c(F)c1F [probe 6, Pentafluorophenyl 4-pentynoate] | ND (the WT did not label more than the mutant (<2x difference quantified)) | ND (the WT did not label more than the mutant (<2x difference quantified)) | – | –
C#Cc1ccc(C(=O)Oc2c(F)c(F)c(F)c(F)c2F)cc1 [probe 13, Pentafluorophenyl 4-ethynylbenzoate] | ND (the WT did not label more than the mutant (<2x difference quantified)) | ND (the WT did not label more than the mutant (<2x difference quantified)) | PD (the WT labeled more than the mutant (>2x difference quantified)) | –
Cc1cc(C)n2c1C=C1C=CC(CCC(=O)Oc3c(F)c(F)c(S(=O)(=O)[O-])c(F)c3F)=[N+]1[B-]2(F)F.[Na+] [probe 18, reference compound] | ND (the WT did not label more than the mutant (<2x difference quantified)) | NL (labelling of the WT protein was not detected by gel (intensity for WT less than 2x background)) | PD (the WT labeled more than the mutant (>2x difference quantified)) | PD (the WT labeled more than the mutant (>2x difference quantified))
C#Cc1ccc(C(=O)Oc2ccccc2[N+](=O)[O-])cc1 [probe 10, 2-Nitrophenyl 4-ethynylbenzoate] | – | – | PD (the WT labeled more than the mutant (>2x difference quantified)) | –
C#Cc1ccc(C(=O)Oc2c(F)c(F)cc(F)c2F)cc1 [probe 12, 2,3,5,6-Tetrafluorophenyl 4-ethynylbenzoate] | ND (the WT did not label more than the mutant (<2x difference quantified)) | ND (the WT did not label more than the mutant (<2x difference quantified)) | PD (the WT labeled more than the mutant (>2x difference quantified)) | PD (the WT labeled more than the mutant (>2x difference quantified))
C#CCCC(=O)Oc1c(F)c(F)c(S(=O)(=O)[O-])c(F)c1F.[Na+] [probe 1, reference compound] | PD (the WT labeled more than the mutant (>2x difference quantified)) | ND (the WT did not label more than the mutant (<2x difference quantified)) | PD (the WT labeled more than the mutant (>2x difference quantified)) | ND (the WT did not label more than the mutant (<2x difference quantified))
